Reference: patent publication US4987125A, “Antithrombotic activity of the triterpenoids of ilex pubescens and the conversion method of the triterpenoids of ilex pubescens having no antithrombotic activity into the triterpenoids having antithrombotic activity” (Cheil Sugar & Co., Ltd., priority 1988, dated 1991)
Entries after “also recorded” stand apart in the source; their conditions may differ.

Key:
[1] = system: Malondialdehyde (MDA) produced by platelet; assay: Inhibition of malondialdehyde (MDA) generation by thrombin-stimulated platelets (TBA method); format: cell-based, rats (Male Sprague-Dawley); details: rat platelet
Protocol: A platelet is agglutinated by the stimulus on thrombin. TXA2 is released by this stimulation, and it accelerated the agglutination of the platelet. And the malondialdehyde(MDA) is released with TXA2 . It is conducted whether the extract of the Ilex pubescens inhibits the production of MDA (Determination of Melondialdehyde) or not by the colorimetry method. As the extraction solvent, methanol, butanol and water are used. […] Their structures are as follows:
Male Sprague-Dawley rats, weightin 180-200 g, were used in experiment. Blood was collected by the same method with (test 1-2). 100 sample was let stand for 20 minutes, in polypropylene tube. It was centrifuged (1400 r.p.m. for 20 minutes) at 10° C. to obtain platelet rich plasma (PRP). PRP was recentrifuged (2800 r.m.p., for 20 minutes) at 10° C. to obtain precipitated platelet pellet. Platelet was suspended in 0.01 M of pH 7.4 phosphate buffer (1×10^9 cell/ml). To the platelet suspension, 100 µl of methanol extracts of Ilex pubescens was added and the reaction mixture was preincubated in thermostat of 37° C. for 20 minutes. 50 µl of thrombin (10 U) was then added to agglutinate the platelet, and thiobarbituric acid (TBA) was added as the couple. This reaction mixture was extracted by 2 ml of n-butanol and the n-butanol phase was separated by centrifugation (1200 r.p.m. for 10 minutes) at 30° C. The absorbance of n-butanol phase was observed by UV-spectrophotometer at 534 nm.
1 kg of root of Ilex pubescens was powdered and the powder of Ilex pubescens was extracted 4 times with each 500 ml of 70% methanol by heating in water bath. […] 12 g of methanol extract was suspended in the small amount of water and extracted with butanol several times. […] 12 g of methanol extract of Ilex pubescens, 4.1 g of butanol fraction and 6 g of water fraction were dissolved to 20 ml of methanol solutions, respectively. 1m1 of each solution was taken in test tube and methanol was removed under nitrogen atmosphere. Residue was suspended in 1m1 of 0.01 M phosphate buffer. 0.1 ml of suspension was used as sample.
*1 ml of washed platelet (1 × 10^9 cells/ml) of rats was
preincubated (37° C. for 30 minutes) with 0.1 ml of sample in 0.01
M phosphate buffer (pH 7.4, in normal saline). Then, to the agglutinated
platelet, 50 μl of bovine thrombin (10 U) was added.
**MDA was determined by the method of TBA. Each value is the mean of 2
Therefore, 4.1 g of butanol fraction was dissolved in 10 ml of methanol and chromatographed on Sephadex LH-20 column (Sigma Co., 3.8×66 cm) with methanol as eluant. After the first eluate (260 ml) corresponding to the void volume of the column was eluted, the eluate was collected in test tubes at the volume of 21ml. 12 fractions were obtained.
Each fraction was dissolved in 10 ml of methanol and 0.5 ml of methanol solution was taken. The solvent was evaporated under nitrogen atmosphere. The residue was suspended in 1m1 of 0.01 M phosphate buffer and 0.1m1 was used as sample. Inhibition of MDA generation was measured by the same method with Test 2-1).
*4.1 g of butanol extract was chromatographed on Sephadex LH20 column (3,
× 66 cm) with methanol as eluant.
**Each fraction was dissolved in 10 ml of methanol and 0.5 ml of solution

[2] = system: thromboxane synthase; details: known property; cited from earlier work

Compound	inhibition of MDA generation, result in words [1]	also measured
C[C@H]1CC[C@]2(C(=O)O)CC[C@]3(C)C(=CC[C@@H]4[C@@]5(C)CC[C@H](O[C@@H]6OC[C@@H](O)[C@H](O)[C@H]6O[C@@H]6O[C@H](CO)[C@@H](O)[C@H](O)[C@H]6O)C(C)(C)[C@@H]5CC[C@]43C)[C@@H]2[C@]1(C)O [Ilexoside D]	exhibited the greatest antithrombic activity	inhibition of MDA generation, result in words ([1]; listed as ilexoside D): effective; also recorded: inhibits MDA production
C[C@H]1CC[C@]2(C(=O)O[C@@H]3O[C@H](CO)[C@@H](O)[C@H](O)[C@H]3O)CC[C@]3(C)C(=CC[C@@H]4[C@@]5(C)CC[C@H](O[C@@H]6OC[C@@H](O)[C@H](O)[C@H]6O[C@@H]6O[C@H](CO)[C@@H](O)[C@H](O)[C@H]6O)C(C)(C)[C@@H]5CC[C@]43C)[C@@H]2[C@]1(C)O [Ilexoside K]	had no effect; also recorded: ineffective	
C[C@@H]1O[C@@H](O[C@H]2[C@H](O[C@H]3[C@H](O[C@H]4CC[C@]5(C)[C@H]6CC=C7[C@H]8[C@](C(=O)O[C@@H]9O[C@H](CO)[C@@H](O)[C@H](O)[C@H]9O)(CC[C@H](C)[C@@]8(C)O)CC[C@@]7(C)[C@]6(C)CC[C@H]5C4(C)C)OC[C@@H](O)[C@@H]3O)O[C@H](CO)[C@@H](O)[C@@H]2O)[C@H](O)[C@H](O)[C@H]1O [Ilexoside O]	exhibited no effect	inhibition of MDA generation, result in words ([1]; listed as ilexoside O): ineffective
c1c[nH]cn1 [Imidazole]		inhibition of thromboxane synthase, in words [2]: known as the inhibitor of thromboxane synthase
CC1CCC2(C(=O)O)CCC3(C)C(=CCC4C5(C)CCC(O)C(C)(C(=O)O)C5CCC43C)C2C1(C)O (stereo not drawn) [Pubescenic acid]	inhibits MDA production	IC50 (concentration inhibiting 50% of MDA generation) ([1]; isolated components, imidazole as control): 0.41 mg
Prosapogenin A	did not inhibit MDA generation	
